Test results reported in patent publication US4659859A, “2-alkoxy-1-alkoxy phosphoryl dichlorides” (priority 1986, dated 1987).
Several values for one entry are separate records, joined by “and”; a condition that tells them apart may be missing. Equal entries are not always repeated. Structures can show the parent of a compound that is named as a salt.

Tests used:
[1] = system: release of arachidonic acid from membrane phospholipids (rabbit neutrophils); experiment: Inhibition of release of arachidonic acid from membrane phospholipids in glycogen-elicited rabbit neutrophils; assay type: cell-based; conditions: A-23187 0.5 mcg/ml activation, 5 minutes pretreatment at 37° C.
Protocol: In this procedure, glycogen-elicited rabbit neutrophils are labelled with ^14 C-arachidonic acid by incubation for one hour at 37° C. and followed by treatment with the compound under test at 37° C. for 5 minutes. The cells were then activated by addition of 0.5 mcg/ml of A-23187 (an ionophore) for 5 minutes. Cellular metabolism was stopped; the membrane lipids extracted; and the extracted lipids chromatographed on TLC plates. Assays were conducted for free ^14 C-arachidonic acid and hydroxy^14 C-eicosatetraenoic acid (HETES) using a radiochromatogram scanner.

[2] = system: C3 H mammary carcinoma; experiment: Antitumor activity vs C3 H mammary carcinoma; design: species or system mice; conditions: mouse, in vivo
From the text: (§1) Compounds according to formula II above are also active against transplanted tumors in mice. Table II which follows gives the results of testing (d,1)-2-ethoxy-1-[(2-trimethylaminoethoxy)phosphinyloxy]-eicosane,hydroxy inner salt, (A), against several such tumors. In the table, column 1 gives the name of the tumor, column 2 the dosage levels, column 3 toxic deaths, column 4, the percent tumor growth inhibition and column 5, the dosage schedule or regimen. Ten mice were given each dosage I.P. and a group of 20 mice used as controls.

[3] = system: CA755 mammary carcinoma; experiment: Antitumor activity vs CA755 mammary carcinoma; design: species or system mice; conditions: mouse, in vivo
From the text: as §1

[4] = system: 6C3 HED lymphosarcoma; experiment: Antitumor activity vs 6C3 HED lymphosarcoma in mice; assay type: in vivo; conditions: daily for 8 days after inoculation
From the text: as §1

[5] = system: spontaneously hypertensive rats (SHR); experiment: Blood pressure and heart rate in spontaneously hypertensive rats, tail cuff method; assay type: in vivo, rat; conditions: for Blood pressure: tail cuff
From the text: (§2) The above compounds are also active in lowering the blood pressure of spontaneously hypertensive rats (SHR). […] In the table, column 1 gives the compound used, column 2 the dose level, column 3, the route of administration, column 4, number of rats, column 5, the time of blood pressure measurement, column 6, blood pressure in mm (Hg), and column 7, heart rate.
*B.P. measured by tail cuff method.

[6] = system: X-5563 plasma cell myeloma; experiment: Antitumor activity vs X-5563 plasma cell myeloma in mice; assay type: in vivo; conditions: daily for 10 days with 3 day delay
From the text: as §1
Table III gives the results obtained by comparing the activity of the racemate (d,1)-2-ethoxy-1-[(2-trimethylaminoethoxy)phosphinyloxy]eicosane,hydroxy inner salt (A), the L-(-)enantiomer (B) and the D-(+)enantiomer (C) versus X-5563, a plasma cell myeloma.

[7] = system: C-6 colon carcinoma; experiment: Antitumor activity vs C-6 colon carcinoma in mice; assay type: in vivo; conditions: daily for 10 days, 5 day delay
From the text: as §1

[8] = system: P388 leukemia; experiment: Antitumor activity vs P388 leukemia; design: species or system mice; conditions: mouse, in vivo
From the text: as §1

[9] = system: M-5 ovarian carcinoma; experiment: Antitumor activity vs M-5 ovarian carcinoma; design: species or system mice; conditions: mouse, in vivo
From the text: as §1

[10] = system: X-5563 plasma cell myeloma; experiment: Oral dosing vs X-5563 plasma cell myeloma; assay type: in vivo, mice
[11] = system: spontaneously hypertensive rats (SHR); experiment: Blood pressure and heart rate in spontaneously hypertensive rats, femoral artery cannula; assay type: in vivo, rat; conditions: for Blood pressure: femoral artery cannula
From the text: as §2
**B.P. measured by femoral artery cannula.

[12] = 30 mg/kg S.C., 0 hours (baseline), 8 rats
[13] = 50 mg/kg S.C., 0 hours (baseline), 8 rats
[14] = 3 mg/kg I.V., 0 hours (baseline)
[15] = 10 mg/kg I.V., 0 hours (baseline)

CCCCCCCCCCCCCCCCCCC(COP(=O)([O-])OCC[N+](C)(C)C)OCC (racemic) [Compound 3, (d,l)-2-Ethoxy-1-[(2-trimethylaminoethoxy)phosphinyloxy]eicosane, hydroxy inner salt]
inhibition of the release of arachidonic acid (AA) from phospholipids [1]: 69% | inhibition of the total production of free AA and HETES [1]: 97% | activity against C3 H mammary carcinoma [2]: no activity | activity against CA755 mammary carcinoma [3]: no activity | Percent inhibition of Tumor growth ([4]; 12 mg/kg I.P.): 10% | Toxic deaths ([4]; 12 mg/kg I.P.): 0/10 | Percent inhibition of Tumor growth ([4]; 17 mg/kg I.P.): 15% | Toxic deaths ([4]; 17 mg/kg I.P.): 0/10 | Percent inhibition of Tumor growth ([4]; 25 mg/kg I.P.): 48% | Toxic deaths ([4]; 25 mg/kg I.P.): 0/10 | Percent inhibition of Tumor growth ([4]; 35 mg/kg I.P.): 85% | Toxic deaths ([4]; 35 mg/kg I.P.): 0/10 | Blood pressure ([5]; 5 mg/kg S.C., 0 hours (baseline), 5 rats): 188 mm Hg | Blood pressure ([5]; 5 mg/kg S.C., 1 hour, 5 rats): 177 mm Hg | Blood pressure ([5]; 5 mg/kg S.C., 2 hours, 5 rats): 159 mm Hg | Blood pressure ([5]; 5 mg/kg S.C., 3 hours, 5 rats): 155 mm Hg | Blood pressure ([5]; 5 mg/kg S.C., 4 hours, 5 rats): 154 mm Hg | Blood pressure ([5]; 5 mg/kg S.C., 5 hours, 5 rats): 156 mm Hg | Heart Rate [5, 12]: 335 beats/min | Blood pressure [5, 12]: 188 mm Hg | Heart Rate ([5]; 30 mg/kg S.C., 1 hour, 8 rats): 328 beats/min | Blood pressure ([5]; 30 mg/kg S.C., 1 hour, 8 rats): 177 mm Hg | Heart Rate ([5]; 30 mg/kg S.C., 2 hours, 8 rats): 349 beats/min | Blood pressure ([5]; 30 mg/kg S.C., 2 hours, 8 rats): 151 mm Hg | Heart Rate ([5]; 30 mg/kg S.C., 3 hours, 8 rats): 346 beats/min | Blood pressure ([5]; 30 mg/kg S.C., 3 hours, 8 rats): 147 mm Hg | Heart Rate ([5]; 30 mg/kg S.C., 4 hours, 8 rats): 347 beats/min | Blood pressure ([5]; 30 mg/kg S.C., 4 hours, 8 rats): 156 mm Hg | Heart Rate ([5]; 30 mg/kg S.C., 5 hours, 8 rats): 341 beats/min | Blood pressure ([5]; 30 mg/kg S.C., 5 hours, 8 rats): 151 mm Hg | Heart Rate [5, 13]: 345 beats/min | Blood pressure [5, 13]: 190 mm Hg | Heart Rate ([5]; 50 mg/kg S.C., 1 hour, 8 rats): 352 beats/min | Blood pressure ([5]; 50 mg/kg S.C., 1 hour, 8 rats): 177 mm Hg | Heart Rate ([5]; 50 mg/kg S.C., 2 hours, 8 rats): 355 beats/min | Blood pressure ([5]; 50 mg/kg S.C., 2 hours, 8 rats): 149 mm Hg | Heart Rate ([5]; 50 mg/kg S.C., 3 hours, 8 rats): 367 beats/min | Blood pressure ([5]; 50 mg/kg S.C., 3 hours, 8 rats): 143 mm Hg | Heart Rate ([5]; 50 mg/kg S.C., 4 hours, 8 rats): 357 beats/min | Blood pressure ([5]; 50 mg/kg S.C., 4 hours, 8 rats): 139 mm Hg | Heart Rate ([5]; 50 mg/kg S.C., 5 hours, 8 rats): 359 beats/min | Blood pressure ([5]; 50 mg/kg S.C., 5 hours, 8 rats): 129 mm Hg | hypotensive effects in SHR (in words) ([5]; administered subcutaneously, various dose levels): hypotensive effects | Percent inhibition of Tumor growth ([6]; 12 mg/kg): 37% | Toxic deaths ([6]; 12 mg/kg): 0/10 | Toxic deaths ([6]; 17 mg/kg): 0/10 | Percent inhibition of Tumor growth ([6]; 17 mg/kg, listed as (d,1)-A): 65% | Percent inhibition of Tumor growth ([6]; 17 mg/kg, listed as A): 65% and 70% | Percent inhibition of Tumor growth ([6]; 25 mg/kg, listed as (d,1)-A): 77% | Toxic deaths ([6]; 25 mg/kg, listed as (d,1)-A): 0/10 | Percent inhibition of Tumor growth ([6]; 25 mg/kg, listed as A): 77% and 86% | Toxic deaths ([6]; 25 mg/kg, listed as A): 0/10 and 2/10 | Percent inhibition of Tumor growth ([6]; 35 mg/kg, listed as (d,1)-A): Toxic | Toxic deaths ([6]; 35 mg/kg, listed as (d,1)-A): 4/10 | Percent inhibition of Tumor growth ([6]; 35 mg/kg, listed as A): toxic | Toxic deaths ([6]; 35 mg/kg, listed as A): 4/10 and 5/10 | Toxic deaths ([6]; 50 mg/kg): 10/10 | Percent inhibition of Tumor growth ([6]; 50 mg/kg, listed as (d,1)-A): Toxic | Percent inhibition of Tumor growth ([6]; 50 mg/kg, listed as A): toxic | Percent inhibition of Tumor growth ([6]; 70 mg/kg): toxic | Toxic deaths ([6]; 70 mg/kg): 10/10 | Percent inhibition of Tumor growth ([7]; 12 mg/kg I.P.): 23% | Toxic deaths ([7]; 12 mg/kg I.P.): 0/10 | Percent inhibition of Tumor growth ([7]; 17 mg/kg I.P.): 56% | Toxic deaths ([7]; 17 mg/kg I.P.): 1/10 | Percent inhibition of Tumor growth ([7]; 25 mg/kg I.P.): 24% | Toxic deaths ([7]; 25 mg/kg I.P.): 0/10 | Percent inhibition of Tumor growth ([7]; 35 mg/kg I.P.): Toxic | Toxic deaths ([7]; 35 mg/kg I.P.): 5/10 | activity against P388 leukemia [8]: no activity | activity against M-5 ovarian carcinoma [9]: no activity | inhibition of tumor growth ([10]; 25 mg/kg orally daily for 10 days after inoculation): 10% | inhibition of tumor growth ([10]; 35 mg/kg orally daily for 10 days after inoculation): 47% | inhibition of tumor growth ([10]; 50 mg/kg orally daily for 10 days after inoculation): 56% | toxicity ([10]; 50, 35 and 25 mg/kg orally daily for 10 days): minimal toxicity | toxicity ([10]; 50 and 70 mg/kg dose levels orally): toxic | Heart Rate [11, 14]: 335 beats/min | Blood pressure [11, 14]: 195 mm Hg | Heart Rate ([11]; 3 mg/kg I.V., 1.0 hours): 395 beats/min | Blood pressure ([11]; 3 mg/kg I.V., 1.0 hours): 173 mm Hg | Heart Rate ([11]; 3 mg/kg I.V., .08 hours): 280 beats/min | Blood pressure ([11]; 3 mg/kg I.V., .08 hours): 105 mm Hg | Heart Rate ([11]; 3 mg/kg I.V., .25 hours): 337 beats/min | Blood pressure ([11]; 3 mg/kg I.V., .25 hours): 140 mm Hg | Heart Rate ([11]; 3 mg/kg I.V., .5 hours): 370 beats/min | Blood pressure ([11]; 3 mg/kg I.V., .5 hours): 153 mm Hg | Heart Rate [11, 15]: 345 beats/min | Blood pressure [11, 15]: 198 mm Hg | Heart Rate ([11]; 10 mg/kg I.V., 1.0 hours): 365 beats/min | Blood pressure ([11]; 10 mg/kg I.V., 1.0 hours): 154 mm Hg | Heart Rate ([11]; 10 mg/kg I.V., .08 hours): 442 beats/min | Blood pressure ([11]; 10 mg/kg I.V., .08 hours): 78 mm Hg | Heart Rate ([11]; 10 mg/kg I.V., .25 hours): 420 beats/min | Blood pressure ([11]; 10 mg/kg I.V., .25 hours): 140 mm Hg | Heart Rate ([11]; 10 mg/kg I.V., .5 hours): 395 beats/min | Blood pressure ([11]; 10 mg/kg I.V., .5 hours): 153 mm Hg
